Experimental data as given in ChEMBL document CHEMBL1140285, “Synthesis and ocular effects of imidazole nitrolic acids” (2005).
Activity calls are given as the source filed them. No cut-off for these calls is given here.

What was measured:
Oryctolagus cuniculus [1] = assay: Increase in cGMP concentration in aqueous humor after intravitreal administration of compound in rabbits; control value is 14.31; type: functional, Aqueous humor of eyeball
Sus scrofa [2] = assay: Increase in nitrite concentration in porcineiris-ciliary body after administration of compound at the concentrations of 100 uM; control value is 0.15
Oryctolagus cuniculus [3] = assay: Increase in NOx concentration in aqueous humor after intravitreal administration of compound in rabbits; control value is 450.31; type: functional, Aqueous humor of eyeball
Sus scrofa [4] = assay: Increase in cGMP concentration in porcineiris-ciliary body after administration of compound at the concentrations of 100 uM; control value is 0.46
Oryctolagus cuniculus [5] = assay: Increase in NOx concentration in porcineiris-ciliary body after administration of compound at the concentrations of 10 uM and 100 uM; control value is 0.36; type: functional
Oryctolagus cuniculus [6] = assay: Increase in NOx concentration in plasma after intravitreal administration of compound in rabbits; control value is 408.59; type: functional
Oryctolagus cuniculus [7] = assay: Maximal decrease in IOP observed with in 24 hours after intravitreal administration of the compound at the concentration of 20 mM; type: functional
Sus scrofa [8] = assay: Increase in nitrite concentration in porcineiris-ciliary body after administration of compound at the concentrations of 10 uM; control value is 0.15
Oryctolagus cuniculus [9] = assay: Increase in nitrite concentration in plasma after intravitreal administration of compound in rabbits; control value is 0.98; type: functional
Sus scrofa [10] = assay: Increase in cGMP concentration in porcineiris-ciliary body after administration of compound at the concentrations of 10 uM; control value is 0.46
Oryctolagus cuniculus [11] = assay: Increase in nitrite concentration in aqueous humor after intravitreal administration of compound in rabbits; control value is 2.40; type: functional, Aqueous humor of eyeball
Oryctolagus cuniculus [12] = assay: Increase in nitrite concentration in porcineiris-ciliary body after administration of compound at the concentrations of 10 uM and 100 uM; control value is 0.15; NE is no effect on IOP; type: functional
Oryctolagus cuniculus [13] = assay: Maximal decrease in IOP observed with in 24 hours after intravitreal administration of the compound; NE is no effect on IOP; type: functional, organism-based
Oryctolagus cuniculus [14] = assay: Increase in NOx concentration in porcineiris-ciliary body after administration of compound at the concentrations of 10 uM and 100 uM; control value is 0.36; NE is no effect on IOP; type: functional
Sus scrofa [15] = assay: Increase in NOx concentration in porcineiris-ciliary body after administration of compound at the concentrations of 100 uM; control value is 0.36
Sus scrofa [16] = assay: Increase in NOx concentration in porcineiris-ciliary body after administration of compound at the concentrations of 10 uM; control value is 0.36
Oryctolagus cuniculus [17] = assay: Maximal decrease in IOP observed with in 24 hours after intravitreal administration of the compound;NE is no effect on IOP; type: functional, organism-based
Oryctolagus cuniculus [18] = assay: Increase in cGMP concentration in aqueous humor after topical administration of compound in rabbits; control value is 16.10; type: functional, Aqueous humor of eyeball
Oryctolagus cuniculus [19] = assay: Increase in NOx concentration in aqueous humor after topical administration of compound in rabbits; control value is 309.09; type: functional, Aqueous humor of eyeball
Oryctolagus cuniculus [20] = assay: Increase in nitrite concentration in aqueous humor after topical administration of compound in rabbits; control value is 1.31; type: functional, Aqueous humor of eyeball
Oryctolagus cuniculus [21] = assay: Increase in nitrite concentration in plasma after topical administration of compound in rabbits; control value is 0.98; type: functional
Oryctolagus cuniculus [22] = assay: Increase in NOx concentration in plasma after topical administration of compound in rabbits; control value is 408.59; type: functional
Oryctolagus cuniculus [23] = assay: Increase in cGMP concentration in aqueous humor after intravitreal administration of compound in rabbits; control value is 9.17; type: functional, Aqueous humor of eyeball
Oryctolagus cuniculus [24] = assay: Maximal decrease in IOP observed with […] after intravitreal administration of the compound at the concentration of 20 mM; type: functional
Oryctolagus cuniculus [25] = assay: Increase in NOx concentration in aqueous humor after intravitreal administration of compound in rabbits; control value is 500.86; type: functional, Aqueous humor of eyeball
Oryctolagus cuniculus [26] = assay: Increase in nitrite concentration in aqueous humor after intravitreal administration of compound in rabbits; control value is 1.32; type: functional, Aqueous humor of eyeball
Oryctolagus cuniculus [27] = assay: Increase in NOx concentration in porcineiris-ciliary body after administration of compound at the concentrations of 10 uM and 100 uM; NE is no effect; type: functional
Oryctolagus cuniculus [28] = assay: Maximal decrease in IOP observed with in 24 hours after intravitreal administration of the compound; NE is no effect; type: functional, organism-based

O=[N+]([O-])/C(=N\O)c1c[nH]cn1
Increase in concentration (Oryctolagus cuniculus [1]): 21.77 pmol/mg prot. | Increase in concentration (Sus scrofa [2]): 0.18 µM | Increase in concentration (Oryctolagus cuniculus [3]): 451.94 µM | cGMP concentration (Sus scrofa [4]): 0.55 pmol/mg prot. | Increase in concentration (Oryctolagus cuniculus [5]): No effect | Increase in concentration (Oryctolagus cuniculus [6]): 469.42 µM | Maximal decrease in IOP (Oryctolagus cuniculus [7]): -7.3 mmHg | Increase in concentration (Sus scrofa [8]): 0.18 µM | Increase in concentration (Oryctolagus cuniculus [9]): 1.38 µM | cGMP concentration (Sus scrofa [10]): 0.51 pmol/mg prot. | Increase in concentration (Oryctolagus cuniculus [11]): 2.49 µM

O=Cc1cncn1Cc1ccccc1
cGMP concentration (Sus scrofa [4]): 0.38 pmol/mg prot. | Increase in concentration (Oryctolagus cuniculus [12]): No effect | Maximal decrease in IOP (Oryctolagus cuniculus [13]): No effect | cGMP concentration (Sus scrofa [10]): 0.3 pmol/mg prot. | Increase in concentration (Oryctolagus cuniculus [14]): No effect

Cc1[nH]cnc1/C(=N/O)[N+](=O)[O-]
Increase in concentration (Sus scrofa [15]): 30.62 µM | Increase in concentration (Sus scrofa [16]): 3.06 µM | Increase in concentration (Sus scrofa [2]): 31.22 µM | cGMP concentration (Sus scrofa [4]): 1.22 pmol/mg prot. | Maximal decrease in IOP (Oryctolagus cuniculus [17]): No effect | Increase in concentration (Sus scrofa [8]): 3.62 µM | cGMP concentration (Sus scrofa [10]): 0.6 pmol/mg prot.

O/N=C/c1cncn1Cc1ccccc1 [listing 1 of 2 here]
Increase in concentration (Oryctolagus cuniculus [12]): No effect | Maximal decrease in IOP (Oryctolagus cuniculus [13]): No effect | Increase in concentration (Oryctolagus cuniculus [14]): No effect

Cn1cncc1/C(=N/O)[N+](=O)[O-] [listing 1 of 2 here]
Increase in concentration (Sus scrofa [15]): 29.96 µM | Increase in concentration (Sus scrofa [16]): 3.38 µM | Increase in concentration (Sus scrofa [2]): 32.07 µM | cGMP concentration (Sus scrofa [4]): 1.19 pmol/mg prot. | Increase in concentration (Sus scrofa [8]): 3.46 µM | cGMP concentration (Sus scrofa [10]): 0.87 pmol/mg prot.

O=[N+]([O-])/C(=N\O)c1c[nH]c(-c2ccccc2)n1
Maximal decrease in IOP (Oryctolagus cuniculus [13]): No effect

Cn1cncc1/C=N/O
cGMP concentration (Sus scrofa [4]): 0.58 pmol/mg prot. | Increase in concentration (Oryctolagus cuniculus [12]): No effect | Maximal decrease in IOP (Oryctolagus cuniculus [13]): No effect | cGMP concentration (Sus scrofa [10]): 0.51 pmol/mg prot. | Increase in concentration (Oryctolagus cuniculus [14]): No effect

O=[N+]([O-])/C(=N\O)c1cncn1Cc1ccccc1
Increase in concentration (Oryctolagus cuniculus [18]): 16.79 pmol/mg prot. | Increase in concentration (Sus scrofa [15]): 24.6 µM | Increase in concentration (Oryctolagus cuniculus [19]): 302.19 µM | Increase in concentration (Sus scrofa [16]): 2.01 µM | Increase in concentration (Sus scrofa [2]): 24.44 µM | cGMP concentration (Sus scrofa [4]): 3.29 pmol/mg prot. | Increase in concentration (Oryctolagus cuniculus [20]): 1.61 µM | Increase in concentration (Oryctolagus cuniculus [21]): 0.87 µM | Increase in concentration (Sus scrofa [8]): 2.15 µM | Increase in concentration (Oryctolagus cuniculus [22]): 379.43 µM | Maximal decrease in IOP (Oryctolagus cuniculus [13]): No effect | cGMP concentration (Sus scrofa [10]): 0.46 pmol/mg prot.

Cn1cncc1/C(=N/O)[N+](=O)[O-] [listing 2 of 2 here]
Maximal decrease in IOP (Oryctolagus cuniculus [13]): No effect

O/N=C/c1cncn1Cc1ccccc1 [listing 2 of 2 here]
cGMP concentration (Sus scrofa [10]): 0.3 pmol/mg prot.

Cn1cncc1/C(=N/O)[N+](=O)[O-].O=[N+]([O-])O
Increase in concentration (Sus scrofa [15]): 51.95 µM | Increase in concentration (Sus scrofa [16]): 4.87 µM | Increase in concentration (Sus scrofa [2]): 28.05 µM | cGMP concentration (Sus scrofa [4]): 2.76 pmol/mg prot. | Increase in concentration (Oryctolagus cuniculus [23]): 9.41 pmol/mg prot. | Maximal decrease in IOP (Oryctolagus cuniculus [24]): -4 mmHg | Increase in concentration (Oryctolagus cuniculus [6]): 425.49 µM | Increase in concentration (Sus scrofa [8]): 2.68 µM | Increase in concentration (Oryctolagus cuniculus [9]): 0.75 µM | Increase in concentration (Oryctolagus cuniculus [25]): 524.29 µM | Increase in concentration (Oryctolagus cuniculus [26]): 10.32 µM | cGMP concentration (Sus scrofa [10]): 1.01 pmol/mg prot.

Cn1cncc1C=O
Increase in concentration (Sus scrofa [15]): 0.09 µM | Increase in concentration (Sus scrofa [16]): 0.63 µM | Increase in concentration (Sus scrofa [2]): 0.62 µM | cGMP concentration (Sus scrofa [4]): 0.5 pmol/mg prot. | Increase in concentration (Sus scrofa [8]): 0.34 µM | Maximal decrease in IOP (Oryctolagus cuniculus [13]): No effect | cGMP concentration (Sus scrofa [10]): 0.38 pmol/mg prot.

Cl.O/N=C/c1cncn1Cc1ccccc1
Increase in concentration (Sus scrofa [15]): 2.21 µM | Increase in concentration (Sus scrofa [16]): 1.97 µM | cGMP concentration (Sus scrofa [4]): 0.58 pmol/mg prot. | cGMP concentration (Sus scrofa [10]): 0.58 pmol/mg prot.

O=[N+]([O-])/C(=N\O)c1ncc[nH]1
Increase in concentration (Oryctolagus cuniculus [27]): inactive | Maximal decrease in IOP (Oryctolagus cuniculus [28]): inactive
